Literature values as cited in article PMC5209880, “Mobilization of hematopoietic stem cells with the novel CXCR4 antagonist POL6326 (balixafortide) in healthy volunteers—results of a dose escalation trial” (Journal of Translational Medicine, 2017).

Assays:
CD34+ cells = details: administered alone (without G-CSF) in healthy donors; cited from earlier work
From the text: The ability of CXCR4 antagonists to rapidly dislodge stem cells from the marrow has been recognized for many years. Previously studied compounds were neither universally well tolerated nor very potent. The only currently approved CXCR4 antagonist plerixafor mobilized a median of 16 CD34+ cells per µL when administered alone (without G-CSF) in healthy donors, which is barely sufficient to generate a normal-sized graft in two apheresis sessions. || The comparator agent in our study was G-CSF given in split doses as is routine practice in our center; the rationale is twofold: more efficient mobilization and potentially better tolerability. […] Thus the advantage in efficiency of single-dose G-CSF vs. balixafortide at the doses tested here would be les ...

[1] = tested on: patients receiving a plerixafor-mobilized graft; details: recipients of a plerixafor-mobilized graft; cited from earlier work

c1cc(CN2CCCNCCNCCCNCC2)ccc1CN1CCCNCCNCCCNCC1 [plerixafor, reference compound]
Median CD34+ cells mobilized (CD34+ cells): 16 CD34+ cells per µL | Patients who developed acute GvHD 3° or 4° [1]: 1/20
